Laboratory results: patent US6525001B1, “Substituted pyrimidine and pyridine herbicides” (Mid-American Commercialization Corporation, priority 1997, dated 2003)

Experiments:
Format in all cases: in vivo
Set-up in all cases: key: 0 is no effect; 10 is complete control
[1] = system: corn (Zea mays); assay: Test B pre-/postemergence
Summary of the method: (§1)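 Compounds in a surfactant-containing, non-phytotoxic solvent blend are applied to freshly planted seed (preemergence) and, concurrently, to seedlings of 2 to 18 cm at 1–4 leaves (postemergence). Plants stay in the greenhouse twelve to sixteen days and are then scored visually from 0 (no effect) to 10 (complete control).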

[2] = system: rape (Brassica napus); assay: Test B pre-/postemergence
Summary of the method: as §1

[3] = system: giant foxtail (Setaria faberii); assay: Test B pre-/postemergence
Summary of the method: as §1

[4] = system: wheat (Triticum aestivum); assay: Test B pre-/postemergence
Summary of the method: as §1

[5] = system: soybean (Glycine max); assay: Test B pre-/postemergence
Summary of the method: as §1

[6] = system: crabgrass (Digitaria sanguinalis); assay: Test B pre-/postemergence
Summary of the method: as §1

[7] = system: purple nutsedge (Cyperus rotundus); assay: Test B pre-/postemergence
Summary of the method: as §1

[8] = system: bedstraw (Galium aparine); assay: Test B pre-/postemergence
Summary of the method: as §1

[9] = system: wild oat (Avena fatua); assay: Test B pre-/postemergence
Summary of the method: as §1

[10] = system: sugar beet (Beta vulgaris); assay: Test B pre-/postemergence
Summary of the method: as §1

[11] = system: velvetleaf (Abutilon theophrasti); assay: Test B pre-/postemergence
Summary of the method: as §1

[12] = system: duck salad (Heteranthera limosa); assay: Test B flood test; details: for Plant response rating, Ducksalad: Postemergence (flood test species)
Summary of the method: (§2)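 Read-out is a visual response score from 0 (no effect) to 10 (complete control), assigned by comparison with untreated controls. Treatment was applied at the 2-leaf stage, and plants stayed in the greenhouse for twelve to sixteen days before scoring.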

[13] = system: smallflower flatsedge (Cyperus difformis); assay: Test B flood test; details: for Plant response rating, S. Flatsedge: Postemergence (flood test species)
Summary of the method: as §2

[14] = system: rice (Oryza sativa); assay: Test B flood test; details: for Plant response rating, Rice: Postemergence (flood test species)
Summary of the method: as §2

[15] = system: bamyardgrass (Echinochloa crus-galli); assay: Test B flood test; details: for Plant response rating, Barnyardgrass: Postemergence (flood test species)
Summary of the method: as §2

[16] = Preemergence, Rate 62 g/ha, scale of 0 to 10
[17] = Rate 62 g/ha, Postemergence (flood test)
[18] = Rate 125 g/ha, Postemergence section (flood test species)

Cc1cnc(-c2ccc(C(F)(F)F)cc2)nc1Cn1cc(Br)cn1 [Compound 54]
Plant response rating, Corn [1, 16]: 0 | Corn plant response rating ([1]; Rate 62 g/ha, Postemergence): 2 | Corn plant response rating ([1]; Rate 125 g/ha, Postemergence): 2 | Plant response rating, Corn ([1]; Rate 125 g/ha, Preemergence): 0 | Plant response rating, Corn ([1]; Rate 250 g/ha, Postemergence): 3 | Plant response rating, Corn ([1]; Rate 250 g/ha, Preemergence): 1 | Plant response rating, Corn ([1]; Rate 500 g/ha, Postemergence): 3 | Plant response rating, Corn ([1]; Rate 500 g/ha, Preemergence): 1 | Plant response rating, Rape [2, 16]: 0 | Rape plant response rating ([2]; Rate 62 g/ha, Postemergence): 7 | Rape plant response rating ([2]; Rate 125 g/ha, Postemergence): 8 | Plant response rating, Rape ([2]; Rate 125 g/ha, Preemergence): 0 | Plant response rating, Rape ([2]; Rate 250 g/ha, Postemergence): 9 | Plant response rating, Rape ([2]; Rate 250 g/ha, Preemergence): 3 | Plant response rating, Rape ([2]; Rate 500 g/ha, Postemergence): 9 | Plant response rating, Rape ([2]; Rate 500 g/ha, Preemergence): 3 | Plant response rating, Giant foxtail [3, 16]: 1 | Giant foxtail plant response rating ([3]; Rate 62 g/ha, Postemergence): 2 | Giant foxtail plant response rating ([3]; Rate 125 g/ha, Postemergence): 3 | Plant response rating, Giant foxtail ([3]; Rate 125 g/ha, Preemergence): 1 | Plant response rating, Giant foxtail ([3]; Rate 250 g/ha, Postemergence): 4 | Plant response rating, Giant foxtail ([3]; Rate 250 g/ha, Preemergence): 8 | Plant response rating, Giant foxtail ([3]; Rate 500 g/ha, Postemergence): 4 | Plant response rating, Giant foxtail ([3]; Rate 500 g/ha, Preemergence): 10 | Plant response rating, Wheat [4, 16]: 0 | Wheat plant response rating ([4]; Rate 62 g/ha, Postemergence): 0 | Wheat plant response rating ([4]; Rate 125 g/ha, Postemergence): 2 | Plant response rating, Wheat ([4]; Rate 125 g/ha, Preemergence): 0 | Plant response rating, Wheat ([4]; Rate 250 g/ha, Postemergence): 2 | Plant response rating, Wheat ([4]; Rate 250 g/ha, Preemergence): 0 | Plant response rating, Wheat ([4]; Rate 500 g/ha, Postemergence): 2 | Plant response rating, Wheat ([4]; Rate 500 g/ha, Preemergence): 1 | Plant response rating, Soybean [5, 16]: 0 | Soybean plant response rating ([5]; Rate 62 g/ha, Postemergence): 0 | Soybean plant response rating ([5]; Rate 125 g/ha, Postemergence): 3 | Plant response rating, Soybean ([5]; Rate 125 g/ha, Preemergence): 0 | Plant response rating, Soybean ([5]; Rate 250 g/ha, Postemergence): 4 | Plant response rating, Soybean ([5]; Rate 250 g/ha, Preemergence): 0 | Plant response rating, Soybean ([5]; Rate 500 g/ha, Postemergence): 4 | Plant response rating, Soybean ([5]; Rate 500 g/ha, Preemergence): 0 | Plant response rating, Crabgrass [6, 16]: 0 | Crabgrass plant response rating ([6]; Rate 62 g/ha, Postemergence): 2 | Crabgrass plant response rating ([6]; Rate 125 g/ha, Postemergence): 4 | Plant response rating, Crabgrass ([6]; Rate 125 g/ha, Preemergence): 0 | Plant response rating, Crabgrass ([6]; Rate 250 g/ha, Postemergence): 5 | Plant response rating, Crabgrass ([6]; Rate 250 g/ha, Preemergence): 3 | Plant response rating, Crabgrass ([6]; Rate 500 g/ha, Postemergence): 5 | Plant response rating, Crabgrass ([6]; Rate 500 g/ha, Preemergence): 8 | Plant response rating, Nutsedge [7, 16]: 0 | Nutsedge plant response rating ([7]; Rate 62 g/ha, Postemergence): 0 | Nutsedge plant response rating ([7]; Rate 125 g/ha, Postemergence): 0 | Plant response rating, Nutsedge ([7]; Rate 125 g/ha, Preemergence): 0 | Plant response rating, Nutsedge ([7]; Rate 250 g/ha, Postemergence): 0 | Plant response rating, Nutsedge ([7]; Rate 250 g/ha, Preemergence): 0 | Plant response rating, Nutsedge ([7]; Rate 500 g/ha, Postemergence): 0 | Plant response rating, Nutsedge ([7]; Rate 500 g/ha, Preemergence): 0 | Plant response rating, Bedstraw [8, 16]: 0 | Bedstraw plant response rating ([8]; Rate 62 g/ha, Postemergence): 3 | Bedstraw plant response rating ([8]; Rate 125 g/ha, Postemergence): 4 | Plant response rating, Bedstraw ([8]; Rate 125 g/ha, Preemergence): 0 | Plant response rating, Bedstraw ([8]; Rate 250 g/ha, Postemergence): 7 | Plant response rating, Bedstraw ([8]; Rate 250 g/ha, Preemergence): 1 | Plant response rating, Bedstraw ([8]; Rate 500 g/ha, Postemergence): 9 | Plant response rating, Bedstraw ([8]; Rate 500 g/ha, Preemergence): 4 | Plant response rating, Wild oats [9, 16]: 0 | Wild oats plant response rating ([9]; Rate 62 g/ha, Postemergence): 1 | Wild oats plant response rating ([9]; Rate 125 g/ha, Postemergence): 2 | Plant response rating, Wild oats ([9]; Rate 125 g/ha, Preemergence): 1 | Plant response rating, Wild oats ([9]; Rate 250 g/ha, Postemergence): 3 | Plant response rating, Wild oats ([9]; Rate 250 g/ha, Preemergence): 3 | Plant response rating, Wild oats ([9]; Rate 500 g/ha, Postemergence): 3 | Plant response rating, Wild oats ([9]; Rate 500 g/ha, Preemergence): 4 | Plant response rating, Sugarbeets [10, 16]: 0 | Sugarbeets plant response rating ([10]; Rate 62 g/ha, Postemergence): 6 | Sugarbeets plant response rating ([10]; Rate 125 g/ha, Postemergence): 7 | Plant response rating, Sugarbeets ([10]; Rate 125 g/ha, Preemergence): 1 | Plant response rating, Sugarbeets ([10]; Rate 250 g/ha, Postemergence): 9 | Plant response rating, Sugarbeets ([10]; Rate 250 g/ha, Preemergence): 7 | Plant response rating, Sugarbeets ([10]; Rate 500 g/ha, Postemergence): 9 | Plant response rating, Sugarbeets ([10]; Rate 500 g/ha, Preemergence): 9 | Plant response rating, Velvetleaf [11, 16]: 0 | Velvetleaf plant response rating ([11]; Rate 62 g/ha, Postemergence): 2 | Velvetleaf plant response rating ([11]; Rate 125 g/ha, Postemergence): 2 | Plant response rating, Velvetleaf ([11]; Rate 125 g/ha, Preemergence): 0 | Plant response rating, Velvetleaf ([11]; Rate 250 g/ha, Postemergence): 3 | Plant response rating, Velvetleaf ([11]; Rate 250 g/ha, Preemergence): 1 | Plant response rating, Velvetleaf ([11]; Rate 500 g/ha, Postemergence): 3 | Plant response rating, Velvetleaf ([11]; Rate 500 g/ha, Preemergence): 1 | Ducksalad plant response rating [12, 17]: 0 | Ducksalad plant response rating [12, 18]: 0 | Plant response rating, Ducksalad ([12]; Rate 250 g/ha): 1 | Plant response rating, Ducksalad ([12]; Rate 500 g/ha): 3 | S. Flatsedge plant response rating [13, 17]: 6 | S. Flatsedge plant response rating [13, 18]: 8 | Plant response rating, S. Flatsedge ([13]; Rate 250 g/ha): 9 | Plant response rating, S. Flatsedge ([13]; Rate 500 g/ha): 9 | Rice plant response rating [14, 17]: 1 | Rice plant response rating [14, 18]: 2 | Plant response rating, Rice ([14]; Rate 250 g/ha): 3 | Plant response rating, Rice ([14]; Rate 500 g/ha): 4 | Barnyardgrass plant response rating [15, 17]: 2 | Barnyardgrass plant response rating [15, 18]: 3 | Plant response rating, Barnyardgrass ([15]; Rate 250 g/ha): 3 | Plant response rating, Barnyardgrass ([15]; Rate 500 g/ha): 4
